# Measurements published in patent publication US6610883B1, “Compounds having selective activity for retinoid X receptors, and means for modulation of processes mediated by retinoid X receptors” (Ligand Pharmaceuticals, Inc., priority 1992, dated 2003).
# pEC50, pIC50: −log10 of the molar value. Read-outs that look alike come from different tables or passages of the source.
# How the values were obtained:
# [1] = system: RAR subfamily (RARα, RARβ, RARγ); experiment: Co-transfection assay, dose response profiles, RAR subfamily; type: cell-based; conditions: in words
# Description: (§1) The co-transfection assay provides a mechanism to evaluate the ability of a compound to modulate the transcription response initiated by an intracellular receptor. […] Berger, et al., J. Steroid Biochem Molec.
# (§2) Briefly, the co-transfection assay involves the introduction of two plasmids by transient transfection into a retinoid receptor-negative mammalian cell background. The first plasmid contains a retinoid receptor cDNA and directs constitutive expression of the encoded receptor. The second plasmid contains a cDNA that encodes for a readily quantifiable protein, e.g., firefly luciferase or chloramphenicol acetyl transferase (CAT), under control of a promoter containing a retinoid acid response element, which confers retinoid dependence on the transcription of the reporter. In this co-transfection assay, all retinoid receptors respond to all-trans-retinoic acid in a similar fashion. This assay can be used to accurately measure efficacy and potency of retinoic acid and synthetic retinoids as ligands that interact with the individual retinoid receptor subtypes.
# (§3) Accordingly, synthetic retinoid compounds of the current invention were evaluated for their interaction with retinoid receptor subtypes using the co-transfection assay in which CV-1 cells were co-transfected with one of the retinoid receptor subtypes, a reporter construct, and an internal control to allow normalization of the response for transfection efficiency. The following example is illustrative.
# Co-transfection Assay In CV-1 Cells: A monkey kidney cell line, CV-1, was used in the cis-trans assay. Cells were transfected with two plasmids. […] The cis-vector contains an easily assayable gene product, in this case the firefly luciferase, coupled to a retinoid-responsive promoter, i.e., an RARE or RXRE. Addition of retinoic acid or an appropriate synthetic retinoid results in the formation of a retinoid-RAR or -RXR complex that activates the expression of luciferase gene, causing light to be emitted from cell extracts. […]
# HL60 cells [2] = experiment: HL60 differentiation (NBT reduction); type: cell-based; conditions: for pEC50: Homo sapiens
# [3] = system: RXR subfamily (RXRα, RXRβ, RXRγ)
# Description: as §1
# as §2, with “This assay can be used to accurately measure efficacy and potency of retinoic acid and synthetic retinoids as ligands that interact with the individual retinoid receptor subtypes.” left out
# as §3, with “The following example is illustrative.” left out
# HL60 cells [4] = system: HL60 cells
# RXRβ = molecular target: T1, RXRβ (Mus musculus, UniProt P28704); experiment: Co-transfection (cis-trans) assay in CV-1 cells, RXRβ; type: cell-based; conditions: RXRβ
# T1 construct: expressed in transfected cells; host or cells: CV-1 (monkey kidney)
# T1 sequence (P28704 1-520): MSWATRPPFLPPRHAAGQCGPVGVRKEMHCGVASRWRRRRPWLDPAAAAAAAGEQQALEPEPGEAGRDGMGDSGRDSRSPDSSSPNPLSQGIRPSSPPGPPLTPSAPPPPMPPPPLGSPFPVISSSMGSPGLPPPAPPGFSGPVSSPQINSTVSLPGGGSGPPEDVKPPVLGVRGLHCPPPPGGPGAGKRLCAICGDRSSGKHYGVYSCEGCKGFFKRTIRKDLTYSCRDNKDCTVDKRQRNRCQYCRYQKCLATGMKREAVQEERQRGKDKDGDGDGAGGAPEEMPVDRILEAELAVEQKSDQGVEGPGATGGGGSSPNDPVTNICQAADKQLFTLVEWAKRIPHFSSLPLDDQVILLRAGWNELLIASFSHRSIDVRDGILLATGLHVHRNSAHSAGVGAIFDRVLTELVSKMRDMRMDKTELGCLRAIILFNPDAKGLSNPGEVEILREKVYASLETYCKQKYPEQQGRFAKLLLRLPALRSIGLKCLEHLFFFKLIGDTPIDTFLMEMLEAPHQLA
# Description: as §1, §2, §3
# (§4) Retinoids: All-tans-retinoic acid (RA) and 13-cis-retinoic acid (13-cis-RA) were obtained from Sigma. […] Retinoids were dissolved in dimethylsulfoxide for use in the transcriptional activation assays.
# (§5) Co-transfection Assay In CV-1 Cells: A monkey kidney cell line, CV-1, was used in the cis-trans assay. Cells were transfected with two plasmids. […] The cis-vector contains an easily assayable gene product, in this case the firefly luciferase, coupled to a retinoid-responsive promoter, i.e., an RARE or RXRE. Addition of retinoic acid or an appropriate synthetic retinoid results in the formation of a retinoid-RAR or -RXR complex that activates the expression of luciferase gene, causing light to be emitted from cell extracts. The level of luciferase activity is directly proportional to the effectiveness of the retinoid-receptor complex in activating gene expression. This sensitive and reproducible co-transfection approach permits the identification of retinoids that interact with the different receptor isoforms.
# (§6) Cells were cultured in DMEM supplemented with 10% charcoal resin-stripped fetal bovine serum, and experiments were conducted in 96-well plates. […] Cells were transfected for 6 h and then washed to remove the precipitate. The cells were then incubated for 36 h with or without retinoid. After the transfection, all subsequent steps were performed on a Beckman Biomek Automated Workstation. […] All determinations were performed in triplicate in two independent experiments and were normalized for transfection efficiency by using β-galactosidase as the internal control. […] Efficacy values less than 5% are not statistically different than the 0% background.
# RXR = experiment: apoA1 "A" site reporter co-transfection in HepG-2 cells, RXR; type: cell-based
# RAR = experiment: apoA1 "A" site reporter co-transfection in HepG-2 cells, RAR
# Rhino mice utriculi = experiment: Comedolytic test on Rhino mice; conditions: 0.1% solution, topical
# skin of Rhino mice = experiment: Skin irritation in Rhino mice; type: in vivo; conditions: compared with 9-cis- or all-trans-retinoic acid
# RXRγ = molecular target: T2, RXRγ (Mus musculus, UniProt P28705); experiment: Co-transfection (cis-trans) assay in CV-1 cells, RXRγ; type: cell-based
# T2 construct: expressed in transfected cells; host or cells: CV-1 (monkey kidney)
# T2 sequence (P28705 1-463): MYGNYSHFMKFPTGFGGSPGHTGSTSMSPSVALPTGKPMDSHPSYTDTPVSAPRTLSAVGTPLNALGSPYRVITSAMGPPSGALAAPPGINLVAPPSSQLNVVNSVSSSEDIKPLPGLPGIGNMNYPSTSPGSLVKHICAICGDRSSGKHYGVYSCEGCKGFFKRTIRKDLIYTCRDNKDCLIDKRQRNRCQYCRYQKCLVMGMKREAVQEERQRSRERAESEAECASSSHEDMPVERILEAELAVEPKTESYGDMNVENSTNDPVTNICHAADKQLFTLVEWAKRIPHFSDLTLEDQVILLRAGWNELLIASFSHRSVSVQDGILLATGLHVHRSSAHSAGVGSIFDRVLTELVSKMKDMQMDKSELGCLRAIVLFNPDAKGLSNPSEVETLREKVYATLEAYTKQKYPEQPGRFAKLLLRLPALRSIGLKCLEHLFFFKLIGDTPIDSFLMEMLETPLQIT
# Description: as §1, §2, §3, §4, §5, §6
# RXRα = molecular target: T3, RXRα (Homo sapiens, UniProt P19793); experiment: Co-transfection (cis-trans) assay in CV-1 cells, RXRα; type: cell-based; set-up: Emax: dose or concentration left out as unconfirmed
# T3 construct: The first plasmid contains a retinoid receptor cDNA and directs constitutive expression of the encoded receptor; expressed in transfected cells; host or cells: CV-1 (monkey kidney)
# T3 sequence (P19793 1-462): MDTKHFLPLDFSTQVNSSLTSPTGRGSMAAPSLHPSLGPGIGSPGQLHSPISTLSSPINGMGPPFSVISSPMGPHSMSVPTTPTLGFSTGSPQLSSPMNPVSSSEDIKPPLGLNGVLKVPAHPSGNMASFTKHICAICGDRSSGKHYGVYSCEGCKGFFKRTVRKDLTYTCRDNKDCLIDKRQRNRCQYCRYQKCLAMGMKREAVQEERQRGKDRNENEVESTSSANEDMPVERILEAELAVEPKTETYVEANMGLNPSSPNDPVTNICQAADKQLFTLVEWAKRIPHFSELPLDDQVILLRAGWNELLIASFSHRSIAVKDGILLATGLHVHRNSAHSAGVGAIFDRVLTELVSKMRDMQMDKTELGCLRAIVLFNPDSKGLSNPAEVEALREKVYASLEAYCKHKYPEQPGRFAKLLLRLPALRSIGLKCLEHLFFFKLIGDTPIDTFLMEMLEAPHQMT
# Description: as §1, §2, §3, §4, §5, §6
# [5] = system: myeloma cell line (RPMI 8226); experiment: Thymidine incorporation in myeloma cell line RPMI 8226; type: cell-based
# Description: This assay examines the incorporation of radiolabeled thymidine into DNA, and by determining the ability of a compound to inhibit thymidine incorporation into DNA, provides a measure of cell proliferation.
# RXRα/PPAR = experiment: Co-transfection of RXRα and PPAR in HepG2 cells; type: cell-based
# Description: Specifically, peroxisome proliferator-activated receptor (PPAR) is a member of the intracellular receptor super family that plays a role in the modulation of lipid homeostasis. […] These agents, called peroxisome proliferators, have been used in man as hypolipidemic agents.
# apoA1 = experiment: Circulating apoA1 in rats (Western Blot); conditions: 3 mg/kg orally, daily for four days
# Description: Serum samples were taken and analyzed by Western Blot using antisera specific to rat apoA1.
# [6] = rats
# Method: Male Sprague-Dawley rats (160-200 gram) were obtained from Harlan. Animals were fed standard laboratory diets (Harlan/Teklad) and kept in an environmentally controlled animal house with a light period lasting from 6 a.m. to 6 p.m. Animals were treated with drugs prepared as suspensions in olive oil.
# […]
# Plasma total cholesterol was measured enzymatically utilizing Boeringer Mannheim Diagnostics High Performance Cholesterol Methods with an ABBOTT VP Bichromatic Analyzer. cholesterol was measured after preparation of the HDL-containing fraction by heparin-manganese precipitation of plasma. HDL-cholesterol in this fraction was estimated as mentioned earlier. All HDL separations were checked for contamination by other lipoproteins with agarose gel electrophoresis.
# [7] = system: transglutaminase activity in the HL60 cells; experiment: Transglutaminase induction in HL60 cells
# [8] = system: RPMI18226, a multiple myeloma; experiment: Cell growth of RPMI18226; type: cell-based, human; conditions: RPMI18226, cell number and growth in semi-solid medium
# Description: (§7) The effects on growth of these cells were monitored by evaluation of cell number, and also by evaluation of growth in semi-solid medium for the RPMI18226 cell line. […] The therapeutic index is defined as the ratio of efficacy to toxicity of a compound.
# [9] = system: ME180, a squamous cell carcinoma; experiment: Cell growth of ME180; type: cell-based, human; conditions: ME180, cell number
# Description: as §7
smiles,measurement,setting,value
"C=C(c1ccc2c(c1)C(C)(C)CCC2(C)C)c1ccc(C(=O)O)cn1 [Compound 56, 2-[1-(5,5,8,8-tetramethyl-5,6,7,8-tetrahydro-2-naphthyl)ethenyl]pyridine-5-carboxylic acid]",melting point,,173 °C
CC1=C(/C=C/C(C)=C/C=C/C(C)=C/C(=O)O)C(C)(C)CCC1 [all-trans-retinoic acid],Activation of members of the RAR subfamily,[1],activate members of both the RAR and RXR subfamilies
same,pEC50,"HL60 cells [2]; HL-60, HL60, NBT reduction, read-out: EC50 for mediated differentiation",5.70
same,Activation of members of the RXR subfamily,[3],activate members of both the RAR and RXR subfamilies
same,Effect on cellular proliferation (thymidine incorporation),HL60 cells [4],inhibits thymidine incorporation
CC1=C(/C=C/C(C)=C\C=C\C(C)=C\C(=O)O)C(C)(C)CCC1 [9-cis-retinoic acid],Activation of members of the RAR subfamily,[1],activate members of both the RAR and RXR subfamilies
same,Activation of members of the RXR subfamily,[3],activate members of both the RAR and RXR subfamilies
same,Efficacy,RXRβ; maximal response relative to all-trans-retinoic acid at 10^−5 M,140%
"Cc1cc2c(cc1C(=O)c1ccc(C(=O)O)cc1)C(C)(C)CCC2(C)C [3-methyl-TTNCB, 4-[(3,5,5,8,8-pentamethyl-5,6,7,8-tetrahydro-2-naphthyl)carbonyl]benzoic acid]",Activation of members of the RAR subfamily,[1],no significant activity for members of the RAR subfamily
same,"Reporter activation via apoA1 ""A"" site with RXR",RXR,activation in the system
same,"Reporter activation via apoA1 ""A"" site with RAR",RAR,no effect when RAR was used in the transfection
same,Inhibition of the utriculi diameter,Rhino mice utriculi,approximately 50%
same,Skin irritation,skin of Rhino mice,less irritating to the skin of Rhino mice than 9-cis- or all-trans-retinoic acid
"C/C(=C\c1ccc(C(=O)O)cc1)c1ccc2c(c1)C(C)(C)CCC2(C)C [TTNPB, reference compound]",pEC50,RXRγ,< 5.00
same,Emax at 10 µM,"RXRγ; CV-1, RXRγ, maximal response relative to all-trans-retinoic acid at 10^−5 M, read-out: Efficacy",< 5%
same,Emax,"RXRα; CV-1, read-out: Efficacy",< 5%
same,pEC50,"RXRα; RXRα, CV-1 cells, luciferase reporter, 36 h, read-out: Potency",< 5.00
same,inhibition at 10 pM,"[5]; Homo sapiens, RPMI-8226",9%
same,pIC50,"[5]; Homo sapiens, RPMI 8226, FIG. 11, read-out: IC50, inhibition of thymidine incorporation",~10.30
same,Concentration with essentially no effect on cell proliferation,"[5]; RPMI 8226, FIG. 11",less than 10^−11 M
same,Emax at 10 µM,"RXRβ; CV-1, maximal response relative to all-trans-retinoic acid at 10^−5 M, read-out: Efficacy",< 5%
same,pEC50,"RXRβ; CV-1 cells, luciferase reporter, 36 h, read-out: Potency",< 5.00
"CC(C)(Oc1ccc(Cl)cc1)C(=O)O [clofibric Acid, clofibric acid, reference compound]",Normalized Response (%),RXRα/PPAR,100%
"C=C(c1ccc(C(=O)O)cc1)c1cc2c(cc1C)C(C)(C)CCC2(C)C [3-methyl-TTNEB, 4-[1-(3,5,5,8,8-pentamethyl-5,6,7,8-tetrahydro-2-naphthyl)ethenyl]benzoic acid]",Circulating apoA1 level,apoA1,significant increase in circulating apoA1 level
same,Normalized Response (%),RXRα/PPAR,90%
same,HDL levels,"[6]; 100 mg/kg i.p., 4 days",substantial and statistically significant increases in HDL levels
same,Development of tolerance to pharmacological action,"[6]; 30 day p.o. study, 10, 30, or 100 mg/kg",did not indicate development of tolerance
same,Total cholesterol,[6]; four days,showed an increase due to the increase of the HDL-cholesterol fraction
same,Triglycerides,[6]; four days,either no change or a slight decrease
same,Lowest dose with significant increase of HDL-cholesterol,"[6]; i.p., four days",0.3 mg/kg
same,Increase of plasma HDL-cholesterol,[6]; optimally efficacious dose,greater than 60%
same,Induction of transglutaminase activity,[7],induce transglutaminase activity in the HL60 cells
same,Induction of differentiation (NBT reduction),HL60 cells [2]; HL60,not to induce undue differentiation
same,pEC50,"HL60 cells [2]; HL-60, read-out: EC50 for mediated differentiation",< 3.00
same,Effect on cell growth,[8],inhibit cell growth in a concentration-dependent manner
same,Effect on cell growth,[9],inhibit cell growth in a concentration-dependent manner
